# In patent publication US11759434B2, “Methods and compositions for treating melanoma and non-melanoma skin cancers” (Sytheon Limited, priority 2022, dated 2023):
# Columns and labels:
# [1] = test system: Trametinib resistant human, NRAS mutated, WM1366 melanoma cells; assay: MBPD/Trametinib synergy, cell viability (Alamar blue); format: cell-based
# Experimental: Specifically, Trametinib resistant human, NRAS mutated, WM1366 melanoma cells were created in-house by sequentially treating the cells with various concentrations (2 nM-10 nM) of Trametinib for several weeks. Those cells which survived 2 nM Trametinib after two weeks, were then incubated with 4 nM Trametinib and those that survived 4 nM Trametinib for two weeks were isolated and then incubated with 10 nM for several weeks. This led to development of resistance in the WM1366 cells.
# In this study, the Trametinib resistant cells were seeded into black walled 96 well plates (cat. no.—165305, thermo), ˜1000 cells per well employing the same media as noted in Example 1. On Day 2, the cells were treated with 125 or 62.5 μg/ml MBPD and incubated for 48 hours. After 48 hours, fresh cell-culture medium was added with MBPD and Trametinib at concentrations of 30, 15, 7.5, 3.75, 1.875, and 0.9375 nM and the cells allowed to sit for 72 hours. On Day 7, Alamar blue (cat. no. A50101, invitrogen) was added to each well and the cultures incubated for 1 hr in a CO2 incubator. Thereafter, the dye was replaced with 100 ul PBS (Cat no. 14190-144, Gibco) and cell viability as evidenced by fluorescence was recorded (by Biotek synergy/H1 microplate reader) at 560/590 nm.
# Molar (M) IC50 values were calculated using formula weight of each of the compounds individually.
# [2] = test system: Normal, C57BL/6 mouse melanocytes, darkly pigmented; assay: Cell viability (Alamar blue) in normal melanocytes; format: cell-based; settings: Melanocyte, 72 h, 3 days treatment, 4 biological repeats
# Experimental: (§1) In support of the present teachings several experiments were conducted to assess the cytotoxicity of compound 1 (Acetyl Zingerone CAT), available as Synoxyl® AZ from Sytheon Ltd.) and Compound 4, its mono-methoxy analog (3-(4-Methoxy-benzyl)-pentane-2,4-dione (MBPD)), towards normal melanocytes (Normal, C57BL/6 mouse melanocytes, darkly pigmented), and patient derived, NRAS-mutated melanoma cells. On Day 1, the melanoma cells and normal melanocytes were seeded into the black walled 96 well plates (cat. no.—165305, thermo), ˜1000 cells per well and allowed to stand for one day. […] Thereafter, the dye was replaced with 100 ul PBS (Cat. no. 14190-144, Gibco) and cell viability as evidenced by fluorescence was recorded (by Biotek synergy/H1 microplate reader) at 560/590 nm. Cell survival was calculated by subtracting the background (media only) and then normalizing those results with the results obtained from the cells that were not treated with AZ or MBPD. […]
# [3] = test system: patient derived, NRAS-mutated melanoma cells; assay: Cell viability (Alamar blue) in melanoma cells; format: cell-based, human; settings: 3 days treatment, 3 biological repeats
# Experimental: as §1
# [4] = test system: human epidermal keratinocytes; assay: MTT assay (cell viability) after H2O2-induced senescence; format: cell-based
# Experimental: (§2) AMPK activation is a known and efficacious treatment for melanoma and non-melanoma skin cancer (See. e.g., Chen. L. et. al., “AMPK Activation by GSK621 Inhibits Human Melanoma Cells In Vitro and In Vivo”, Biochemical and Biophysical Research Communications 480 (2016), 515-521). To ascertain the ability and efficacy of the compounds of Structure 1 to activate AMPK, a cell assay study was undertaken. In the study, human epidermal keratinocytes were grown using EpiLife Media (60 μM calcium) supplemented with 0.2% v/v bovine pituitary extract, 1 μg/ml recombinant human insulin-like growth factor-I, 0.18 μg/ml hydrocortisone, 5 μg/ml bovine transferrin, 0.2 ng/ml human epidermal growth factor. The cells were grown at 37±2° C. and 5±1% CO2. The keratinocytes were seeded into 96-well plates and cultured overnight to allow the cells to adhere to the well plates. Prior to experimental use, the growth media was replaced with basal media (unsupplemented EpiLife Media) for five hours prior to starting any treatments.
# (§3) The foregoing effect of AZ as an AMPK activator and, in turn, anti-melanoma treatment is especially surprising in light of the pro-viability effect of AZ in normal cells, even those in senescence. Specifically, following on the foregoing experimental methodology, additional studies were conducted on the human keratinocytes cells to assess AZ's impact on cell viability as evidenced by an MTT assay as well as an assessment of its impact on SA-B-Gal activity. In these studies, the human epidermal keratinocytes were treated in basal media for two hours with the test material and then treated with either 50 uM or 100 uM H2O2 in basal media for an additional two hours: the latter treatment to induce senescence. Following the H2O2 treatment, the cells were placed in with fully supplemented EpiLife media for either 16 hours after which changes in cell viability was evaluated via an MTT assay or for 3 days after which changes in the cellular senescence marker beta galactosidase (SA-B-GAL) was evaluated.
# MTT Calculation: the mean MIT absorbance value for untreated cells not exposed to H2O2 was calculated and used to represent 100% cell viability. The individual MIT values from the cells undergoing the various treatments was then divided by the mean value for the untreated cells not exposed to H2O2 and expressed as a percent to determine the change in cell viability caused by each treatment.
# [5] = test system: Senescent Associated β-Galactosidase (SA-B-Gal); assay: Senescent Associated β-Galactosidase (SA-B-Gal) activity assay; format: cell-based, human; settings: 3 days
# Experimental: as §2, §3
# SA-B-GAL Calculation: To determine the changes in SA-B-GAL expression a direct measure of SA-B-GAL activity was used. At the end of the three-day incubation the media was removed, 100 ul of ice-cold cell lysis buffer was added and the cells were lysed for 5 minutes at 4° C. At the end of this lysis procedure a portion of the lysate was used for a protein assay while 50 ul of the cell lysate was transferred to a new well plate and combined with an equal volume of SA-B-GAL reaction buffer containing a fluorescent substrate. This well plate was then incubated for 3 hours at 37° C., after which a 50 ul sample of the reaction was combined with 200 ul of stop solution in a new well plate and the plate was read using a fluorometer (360ex/485em), The fluorescence intensity was then normalized to cellular protein and this ratio was used as an index of SA-B-GAL activity.
# AMPK = AMPK activation study (phosphorylation of AMPK at Thr-172) in epidermal keratinocytes; format: cell-based, human; settings: for AMPK-P/Protein Ratio: two hours
# Experimental: as §2
# The ability of the test material to activate AMPK was determined by measuring the phosphorylation of AMPK. The epidermal keratinocytes were treated with the test material prepared in basal media for two hours. At the end of the two-hour incubation the culture media was removed and the cells were fixed in 4% formaldehyde for 20 minutes at room temperature. After the fixation, the cells were washed three times with wash solution (1 minute per wash) and any endogenous peroxidase activity was quenched by adding 100 ul of a 0.3% H2O2 solution to the wells and incubating the plate for another 20 minutes. After washing as described above, non-specific antibody binding was blocked by adding 200 ul of blocking buffer to each well and incubating the plate for 1 hour at room temperature. […] After this incubation the well plate was read using a fluorometer at 530ex/590em to determine AMPK phosphorylation and at 360ex/485em to determine total cellular protein.
structure (smiles),measurement,setting,value
"COc1ccc(CC(C(C)=O)C(C)=O)cc1 [MBPD, 3-(4-Methoxy-benzyl)-pentane-2,4-dione]",reduction of the Trametinib IC50 by MBPD,"[1]; 125 or 62.5 μg/ml MBPD, 48 h pre-incubation then MBPD plus Trametinib 72 h, 2 biological repeats",~5 fold
same,IC50,[2],14400 µM
same,IC50,"[3]; Homo sapiens, 72 h",400 µM
"CC(=O)Nc1cccc(-n2c(=O)n(C3CC3)c(=O)c3c(Nc4ccc(I)cc4F)n(C)c(=O)c(C)c32)c1 [Trametinib, trametinib, reference compound]",IC50,"[1]; Homo sapiens, in-house generated, Trametinib resistant, NRAS-mutated melanoma cells",0.01 to 0.02 µM
"COc1cc(CC(C(C)=O)C(C)=O)ccc1O [AZ, Acetyl Zingerone]",Viability (% of non-H2O2 exposed cells),"[4]; 12.5 μg/ml, 50 μM H2O2",79.9 ± 11.5%
same,Viability (% of non-H2O2 exposed cells),"[4]; 12.5 μg/ml, 100 μM H2O2",79.1 ± 1.4%
same,Viability (% of non-H2O2 exposed cells),"[4]; 25 μg/ml, 50 μM H2O2",76.1 ± 6.9%
same,Viability (% of non-H2O2 exposed cells),"[4]; 25 μg/ml, 100 μM H2O2",77.4 ± 9.6%
same,Viability (% of non-H2O2 exposed cells),"[4]; 50 μg/ml, 50 μM H2O2",100.7 ± 8.3 %
same,Viability (% of non-H2O2 exposed cells),"[4]; 50 μg/ml, 100 μM H2O2",100.2 ± 6.5%
same,SA-B-Gal Activity/Protein,"[5]; 12.5 μg/ml, 50 μM H2O2",3.45 ± 0.29
same,SA-B-Gal Activity/Protein,"[5]; 12.5 μg/ml, 100 μM H2O2",3.29 ± 0.37
same,SA-B-Gal Activity/Protein,"[5]; 25 μg/ml, 50 μM H2O2",3.30 ± 0.23
same,SA-B-Gal Activity/Protein,"[5]; 25 μg/ml, 100 μM H2O2",3.95 ± 0.36
same,SA-B-Gal Activity/Protein,"[5]; 50 μg/ml, 50 μM H2O2",0.91 ± 0.06
same,SA-B-Gal Activity/Protein,"[5]; 50 μg/ml, 100 μM H2O2",0.90 ± 0.15
same,IC50,[3],1300 µM
same,AMPK-P/Protein Ratio,AMPK; 25 μg/ml,4.16 ± 0.65
same,increase of AMPK activity,AMPK; 50 μg/ml,88.3%
same,AMPK-P/Protein Ratio,AMPK; 50 μg/ml,6.48 ± 1.10
